Several values for one entry are separate records, joined by “and”; a condition that tells them apart may be missing. Equal entries are not always repeated.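 A five-concentration, 48-hour dose response in 96-well plates underlies each endpoint, interpolated linearly between surrounding concentrations. GI50 is the concentration that inhibits growth by half. At the TGI there is no net growth.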
Tests used:
Test in all cases: DTP human tumour cell line panel, 48 h
A498 renal = test system: A498 renal
A549 NSCLC = test system: A549 NSCLC
ACHN renal = test system: ACHN renal
HL-60(TB) leukemia = test system: HL-60(TB) leukemia
KM12 colon = test system: KM12 colon
MDA-MB-435 = test system: MDA-MB-435
NCI-H226 lung = test system: NCI-H226 lung
NCI/ADR-RES ovarian = test system: NCI/ADR-RES ovarian
SN12C renal = test system: SN12C renal
UACC-257 melanoma = test system: UACC-257 melanoma

| SMILES | TGI (A498 renal) | TGI (A549 NSCLC) | TGI (ACHN renal) | TGI (HL-60(TB) leukemia) [µM] | TGI (KM12 colon) | TGI (MDA-MB-435) [µM] | TGI (NCI-H226 lung) | TGI (NCI/ADR-RES ovarian) [µM] | TGI (SN12C renal) | TGI (UACC-257 melanoma) | GI50 (A498 renal) [µM] | GI50 (A549 NSCLC) [µM] | GI50 (ACHN renal) [µM] | GI50 (HL-60(TB) leukemia) [µM] | GI50 (KM12 colon) [µM] | GI50 (MDA-MB-435) [µM] | GI50 (NCI-H226 lung) [µM] | GI50 (NCI/ADR-RES ovarian) [µM] | GI50 (SN12C renal) [µM] | GI50 (UACC-257 melanoma) [µM] |
| --- | --- | --- | --- | --- | --- | --- | --- | --- | --- | --- | --- | --- | --- | --- | --- | --- | --- | --- | --- | --- |
| O=C(O)CN(CC(=O)O)Cc1cc2c(cc1O)Oc1cc(O)c(CN(CC(=O)O)CC(=O)O)cc1C21OC(=O)c2ccccc21 | > 100 µM | > 100 µM | > 100 µM | > 100 | > 100 µM | > 100 | > 100 µM | > 100 | > 100 µM | > 100 µM | – | – | – | – | – | – | – | – | – | – |
| O=C(/C=C/c1ccccn1)c1ccccc1O | 7.14 µM | 20.4 µM | 3.51 µM | 6.15 | 3.04 µM | 3.41 | 6.23 µM | 9.07 | 9.36 µM | 5.71 µM | 2.21 | 5.37 | 1.92 | 2.15 | 1.55 | 1.69 | 2.18 | 2.87 | 2.8 | 2.22 |
| NC(=O)c1nnn(Cc2cc(Cl)c(C(=O)c3ccc(Cl)cc3)c(Cl)c2)c1N | > 9.09 µM and 27.2 µM | > 9.09 µM and 37.1 µM | > 9.09 µM and 35.1 µM | > 100 | > 9.09 µM and 35 µM | > 40.7 | > 9.09 µM and 55.8 µM | > 66.4 | > 9.09 µM and 46.8 µM | > 9.09 µM and 33.7 µM | > 9.09 | > 9.09 | – | > 9.09 | > 9.09 | – | > 9.09 | – | > 9.09 | 6.96 |
| CCOC(=O)c1ccc2c(c1)[n+](=O)c(C(=O)c1ccc3ccccc3c1)c(C(F)(F)F)n2[O-] | 3.09 µM | 3.62 µM | 2.93 µM | 2.82 | 2.51 µM | 2.95 | 3.57 µM | 3.31 | 3.58 µM | 3.24 µM | 1.66 | 1.89 | 1.47 | 0.98 | 1.25 | 1.53 | 1.74 | 1.61 | 1.63 | 1.79 |
| O=C(CSc1nc2ccc([N+](=O)[O-])cc2[nH]1)Nc1cccc(Cl)c1 | 4.16 µM | 15.9 µM | 8.57 µM | 12.2 | 13.8 µM | 12.2 | 9.93 µM | 9.13 | 10.8 µM | 6.68 µM | 1.43 | 2.72 | 2.46 | 3 | 3.1 | 2.7 | 2.38 | 2.41 | 2.46 | 1.57 |
| COc1ccc(-c2cn(-c3ccc(Cl)cc3)c(=S)[nH]2)cc1OC | 53.9 µM | > 100 µM | > 100 µM | 9.32 | > 100 µM | > 100 | > 100 µM | > 100 | > 100 µM | > 100 µM | 3.63 | 66.4 | 9.53 | 3.34 | 23.8 | > 100 | 3.62 | 5.3 | 7.52 | > 100 |
| O=C(CCc1nnc(-c2c(Cl)cccc2Cl)o1)c1nc2ccccc2[nH]1 | 10.1 µM | > 100 µM | > 100 µM | 19.3 | 11 µM | 4.77 | 31.2 µM | > 100 | 56.9 µM | 44.4 µM | 1.53 | 10.4 | 11.9 | 2.23 | 3.16 | 2 | 6.66 | 5.47 | 6.22 | 13.7 |
| O=C(Nc1ncc(Cc2ccccc2)s1)c1ccc2c(c1)OCCO2 | 0.0687 µM | > 100 µM | > 100 µM | > 100 | 32.9 µM | 0.0436 | 7.01 µM | > 100 | > 100 µM | > 100 µM | 0.0123 | 0.0616 | 0.0676 | 0.0416 | 0.0396 | 0.0187 | 0.278 | 0.0395 | 0.0748 | 3.87 |
| O=C(O)CNC(=O)c1ccccc1O | > 100 µM | > 100 µM | > 100 µM | > 100 | > 100 µM | > 100 | > 100 µM | > 100 | > 100 µM | > 100 µM | – | – | – | – | – | – | – | – | – | – |
| Nc1ccccc1/C=N\Nc1ccccc1 | > 100 µM | > 100 µM | > 100 µM | 29.3 | > 100 µM | > 100 | > 100 µM | > 100 | > 100 µM | > 100 µM | > 100 | 4.7 | 3.01 | 1.78 | 0.602 | 4.5 | > 100 | 5.8 | > 100 | 51.5 |
